≈ marks a conversion by molar mass, not a printed value. Like-named read-outs stand apart in the source and are kept apart here. Starred links: 1 amine or outer side, 2 acyl side, 3 side chain; linkers in the order of their positions; H or OH if unused. Positions of bridges follow the written chain, without caps; N, C: chain ends. Non-standard residues stand in square brackets, D forms with d. Residues, ends and D or L forms follow the SMILES beside them. Groups on a side chain read outwards from the residue. *: point of attachment. Orn(4R-OH,5R-OCH2CH2NMe3+) = C[N+](C)(C)CCO[C@@H](N[*:3])[C@H](O)C[C@H](N[*:1])C(=O)[*:2]; pTerphenylCO(4''-OnC5H11) = CCCCCOc1ccc(-c2ccc(-c3ccc(C(=O)*)cc3)cc2)cc1; X1 = O=C([C@@H](N[*:1])[C@H](O)[C@@H](O)c1ccc(O)c(N[*:3])c1)[*:2]; Pro(3S-OH,4S-Me) = C[C@H]1CN[C@H](C(=O)O)[C@H]1O; Hyp = O=C(O)[C@@H]1C[C@@H](O)CN1; βAla = NCCC(=O)O; For = O=C*
Key:
Type in all cases: cell-based
[1] = test system: Neutrophils purified from human peripheral blood; experiment: Human Neutrophil Transwell Migration Assay; conditions: 37° C., 45 minutes, % of the maximum migration possible
Procedure, shortened: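 Neutrophils (~50,000–100,000) were placed above 5-micron transwell inserts with test compound in the lower chamber and allowed to migrate 45 min at 37° C. Migrated cells were quantified by ATP luminescence; medium-only background was subtracted and values expressed as % of cells added directly to the bottom well.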

[2] = test system: C. parapsilosis ATCC 22019
Method: (§1) MIC and MEC assays were run as described in Example 31 with the following exceptions. Starting solutions of all antifungal agents were prepared in 100% DMSO. Stock concentrations were made at 50× the highest final assay concentration and serially diluted 2-fold, 16 times in a 96-well PCR plate (VWR 83007-374). Candida and Aspergillus suspensions from Sabouraud dextrose agar plate cultures were prepared in 0.85% saline at 0.5 McFarland standard (˜0.1 OD530 nm). Candida suspensions were diluted 1:500 in RPMI (MP Biomedicals, cat no. 1060124; buffered with MOPS and adjusted with NaOH to pH 7.0) to a concentration of ˜0.5-2.5×10^3 CFU/mL and Aspergillus suspensions were diluted 1:50 in RPMI to 0.4-5×10^4 CFU/mL final concentration. 98 μL of each cell suspension in RPMI were added to test wells in a 96-well assay plate (Costar cat. no. 3370). A Beckman Multimek 96 liquid handling robot was used to dispense 2 μL of each 50× stock compound into the plate containing 98 μL of each strain in RPMI (2% final solvent concentration). Plates were shaken then incubated at 35° C. for 24-48 h prior to reading. MIC values were read visually at 50% growth inhibition for echinocandins (24 h) and at 100% growth inhibition for amphotericin B (48 h). MEC values (24 h) were read with the aid of a microscope at the lowest echinocandin concentration where rounded/compact hyphal morphology was observed.

C. glabrata ATCC 90030 [3] = test system: C. glabrata ATCC 90030
Method: as §1

C. krusei ATCC 14243 [4] = test system: C. krusei ATCC 14243
Method: as §1

C. albicans ATCC 90028 [5] = test system: C. albicans ATCC 90028
Method: as §1

C. tropicalis ATCC 750 = test system: C. tropicalis ATCC 750
Method: as §1

A. niger ATCC 16404 = experiment: MEC assay (Example 32); conditions: MEC values (24 h), rounded/compact hyphal morphology
Method: as §1

A. fumigatus MYA-4609 [6] = experiment: MEC assay (Example 32); conditions: MEC values (24 h), rounded/compact hyphal morphology
Method: as §1

A. fumigatus ATCC 13073 [7] = experiment: MEC assay (Example 32); conditions: MEC values (24 h), rounded/compact hyphal morphology
Method: as §1

A. flavus ATCC MYA-3631 = experiment: MEC assay (Example 32); conditions: MEC values (24 h), rounded/compact hyphal morphology
Method: as §1

A. fumigatus MYA-3626 [8] = experiment: MEC assay (Example 32); conditions: MEC values (24 h), rounded/compact hyphal morphology
Method: as §1

A. flavus MX 5948 = experiment: MEC assay (Example 31); conditions: RPMI pH 7.0, 35° C., 24-48 hr
Procedure, shortened: (§2)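 Broth microdilution in CLSI-prepared RPMI, pH 7.0, with serial 2-fold drug dilutions; final DMSO 1.25% for investigational agents. Candida inoculum from 0.5 McFarland diluted 1:100; Aspergillus at ~0.2-2.5×10^4 CFU/mL. Incubated 35° C. ~24-48 hr; MIC at visible growth inhibition, MEC at compact rounded hyphal form.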

A. fumigatus MYA-4609 [9] = experiment: MEC assay (Example 31); conditions: RPMI pH 7.0, 35° C., 24-48 hr
Procedure, shortened: as §2

A. fumigatus ATCC 13073 [10] = experiment: MEC assay (Example 31); conditions: RPMI pH 7.0, 35° C., 24-48 hr
Procedure, shortened: as §2

A. fumigatus MX 5944 = experiment: MEC assay (Example 31); conditions: RPMI pH 7.0, 35° C., 24-48 hr
Procedure, shortened: as §2

A. fumigatus MYA-3626 [11] = experiment: MEC assay (Example 31); conditions: RPMI pH 7.0, 35° C., 24-48 hr
Procedure, shortened: as §2

[12] = test system: C. parapsilosis ATCC 22019; experiment: microbe, parasite or virus in culture; conditions: C. parapsilosis ATCC 22019; RPMI pH 7.0, 35° C., 24-48 hr
Procedure, shortened: as §2

C. glabrata ATCC 90030 [13] = experiment: microbe, parasite or virus in culture; conditions: C. glabrata ATCC 90030; RPMI pH 7.0, 35° C., 24-48 hr
Procedure, shortened: as §2

C. krusei ATCC 14243 [14] = experiment: microbe, parasite or virus in culture; conditions: C. krusei ATCC 14243; RPMI pH 7.0, 35° C., 24-48 hr
Procedure, shortened: as §2

C. albicans ATCC 90028 [15] = experiment: microbe, parasite or virus in culture; conditions: C. albicans ATCC 90028; RPMI pH 7.0, 35° C., 24-48 hr
Procedure, shortened: as §2

[16] = C. parapsilosis ATCC 22019, read at 50% growth inhibition for echinocandins (24 h), 100% for amphotericin B (48 h)
[17] = C. glabrata ATCC 90030, read at 50% growth inhibition for echinocandins (24 h), 100% for amphotericin B (48 h)
[18] = C. krusei ATCC 14243, read at 50% growth inhibition for echinocandins (24 h), 100% for amphotericin B (48 h)
[19] = C. albicans ATCC 90028, read at 50% growth inhibition for echinocandins (24 h), 100% for amphotericin B (48 h)
[20] = C. tropicalis ATCC 750, read at 50% growth inhibition for echinocandins (24 h), 100% for amphotericin B (48 h)

MIC [2, 16] [µg/mL] | MIC (C. glabrata ATCC 90030 [3]; [17]) [µg/mL] | MIC (C. krusei ATCC 14243 [4]; [18]) [µg/mL] | MIC (C. albicans ATCC 90028 [5]; [19]) [µg/mL] | MIC (C. tropicalis ATCC 750; [20]) [µg/mL] | SMILES | % Neutrophil Migration ([1]; conc 0.001 μg/mL) [%] | % Neutrophil Migration ([1]; conc 0.01 μg/mL) [%] | % Neutrophil Migration ([1]; conc 0.1 μg/mL) [%] | % Neutrophil Migration ([1]; conc 1 μg/mL) [%] | % Neutrophil Migration ([1]; conc 10 μg/mL) [%] | MEC (A. niger ATCC 16404) [µg/mL] | MEC (A. fumigatus MYA-4609 [6]) [µg/mL] | MEC (A. fumigatus ATCC 13073 [7]) [µg/mL] | MEC (A. flavus ATCC MYA-3631) [µg/mL] | MEC (A. fumigatus MYA-3626 [8]) [µg/mL] | also measured
0.5 | 2 | 0.5 | 0.5 | 0.25 | CCCCCOc1ccc(-c2ccc(-c3ccc(C(=O)N[C@H]4C[C@@H](O)[C@@H](OCC[N+](C)(C)C)NC(=O)[C@@H]5[C@@H](O)[C@@H](C)CN5C(=O)[C@H]([C@@H](C)O)NC(=O)[C@H]([C@H](O)[C@@H](O)c5ccc(O)c(NC(=O)CCNC(=O)[C@H](Cc6ccccc6)NC(=O)[C@H](CC(C)C)NC(=O)[C@H](CCSC)NC=O)c5)NC(=O)[C@@H]5C[C@@H](O)CN5C(=O)[C@H]([C@@H](C)O)NC4=O)cc3)cc2)cc1.O=C[O-] [Compound 31] ({pTerphenylCO(4''-OnC5H11)}-[Orn(4R-OH,5R-OCH2CH2NMe3+)]T[Hyp][X1]([βAla-Phe-Leu-Met-For])T[Pro(3S-OH,4S-Me)]; lactam 1-C) | 126.4 | 115.7 | 146.0 | 134.3 | 64.0 | 0.25 | 0.03 | 0.015 | 0.06 | 0.06 | –
1 (≈ 1.08 µM) | 1 (≈ 1.08 µM) | 1 (≈ 1.08 µM) | 0.5 (≈ 0.541 µM) | 1 (≈ 1.08 µM) | C[C@@H]1[C@H](O)[C@@H](C)/C=C/C=C/C=C/C=C/C=C/C=C/C=C/[C@H](O[C@@H]2O[C@H](C)[C@@H](O)[C@H](N)[C@@H]2O)C[C@@H]2O[C@](O)(C[C@@H](O)C[C@@H](O)[C@H](O)CC[C@@H](O)C[C@@H](O)CC(=O)O[C@H]1C)C[C@H](O)[C@H]2C(=O)O [amphotericin B, reference compound] | – | – | – | – | – | 0.5 | 1 | 0.25 | 1 | 0.25 | MEC (A. flavus MX 5948): 0.5 to 2 µg/mL; MEC (A. fumigatus MYA-4609 [9]): 0.5 to 4 µg/mL; MEC (A. fumigatus ATCC 13073 [10]): 0.5 to 4 µg/mL; MEC (A. fumigatus MX 5944): 0.5-2^ μg/mL; MEC (A. fumigatus MYA-3626 [11]): 0.5 to 2 µg/mL; MIC [12]: 0.5 to 2 µg/mL; MIC (C. glabrata ATCC 90030 [13]): 0.25 to 1 µg/mL; MIC (C. krusei ATCC 14243 [14]): 0.25-2 ^ μg/mL; MIC (C. albicans ATCC 90028 [15]): 0.12 to 1 µg/mL
– | – | – | – | – | CC[C@H](C)C[C@H](C)CCCCCCCCC(=O)N[C@H]1C[C@@H](O)[C@@H](OCCN)NC(=O)[C@@H]2[C@@H](O)CCN2C(=O)[C@H]([C@H](O)CCNC(=O)[C@H](Cc2ccccc2)NC(=O)[C@H](CC(C)C)NC(=O)[C@H](CC[S+](C)[O-])NC=O)NC(=O)[C@H]([C@H](O)[C@@H](O)c2ccc(O)cc2)NC(=O)[C@@H]2C[C@@H](O)CN2C(=O)[C@H]([C@@H](C)O)NC1=O (stereo partly shown) [Compound 30] | 105.2 | 133.6 | 234.3 | 48.2 | 19.7 | 0.5 | 0.5 | 0.25 | 0.5 | 1 | MIC ([2]; ATCC 22019, 24 h): 32 µg/mL (≈ 20.9 µM); MIC (C. glabrata ATCC 90030 [3]; ATCC 90030, 24 h): 8 µg/mL (≈ 5.23 µM); MIC (C. krusei ATCC 14243 [4]; ATCC 14243, 24 h): 32 µg/mL (≈ 20.9 µM); MIC (C. albicans ATCC 90028 [5]; ATCC 90028, 24 h): 2 µg/mL (≈ 1.31 µM); MIC (C. tropicalis ATCC 750; ATCC 750, 24 h): 2 µg/mL (≈ 1.31 µM)
